melting point [°C]	Compound
149 to 150	C#Cc1cnc2ccc(OC(SC)C(=O)NC(C)(C#C)CO)cc2c1 (centres undefined)
45 to 46	CC(C)(CO)C[C@H]1COC(C)(C)N1C(=O)OC(C)(C)C
295 to 298	O=C(Nc1ccc(Sc2ccncc2)cc1)c1ccc([N+](=O)[O-])cc1
202 to 203	O=C(O)c1ccc2c(c1)C=C(CCN1CCCC1)CC2
190 to 192	Cc1onc(-c2c(Cl)cccc2Cl)c1CN1C(=O)C2(COc3cc4c(cc32)OCO4)c2ccccc21 (centres undefined)
276 to 278	Cc1nc2ccc(Cl)cc2c(=O)n1C1CCC(=O)NC1=O (centres undefined)
262 to 265	O=C1C2CCCN2c2ncccc2N1Cc1ccncc1 (centres undefined)
275 to 277	Cc1nccc2[nH]c(=O)c(C#N)cc12
100 to 103	CCOCCOc1ccc(C(C)C)c(NC(=O)CN2CCN(CCSc3nc4ccccc4o3)CC2)c1C(C)C
66 to 72	C=CC(OC(C)OCC)C(NC(=O)OC(C)(C)C)c1ccccc1 (centres undefined)
70 to 73	CCOC(=O)c1ccc([N+](=O)[O-])cc1F
160 to 163	Cc1ccc(C(=O)NCc2ccccc2)cc1-c1nc(NCCN(C)C(=O)OC(C)(C)C)nc2c1CNC(=O)N2c1c(F)cccc1F
173	O=C(O)Cc1ccc(OCc2ccc3ccccc3n2)c(-n2cccc2)c1
59.4 to 61.4	O=C1CCC(c2ccc(Br)cc2)CC1
157	CCOC(=O)C(C#N)=Cc1ccc(NC(=O)CC[Si](C)(C)C)cc1
137	CCCCNc1cc2c(cc1[N+](=O)[O-])OCO2
143 to 145	CNC(=O)N(O)Cc1cccc(Nc2ccccc2C(=O)OC)c1Cl
233 to 236	COc1ccc2nc(COc3ccc(CC(C(N)=O)S(C)(=O)=O)cc3)n(C)c2c1 (centres undefined)
114 to 115	CCc1nc2c(C)cc(C)nc2n1Cc1ccc2c(c1)CCc1ccccc1N2CC(=O)O

melting point [°C]	Compound
135	CCNc1nc2ccc(OC(F)(F)F)cc2s1
139	COc1ccccc1C(=O)N1CCCC2=C1CCc1cc(Cl)ccc12
114 to 120	CCOC(=O)C1=Cc2cc(C(O)C(F)(F)F)ccc2OC1C(F)(F)F (centres undefined)
230 to 231	CC(C)=NOCc1nc2c(N)nc3ccccc3c2n1CCNC(=O)NC(C)C
83.2 to 84.5	O=C(CCCC=CCC1C(O)CC(O)C1C=CC(O)CCc1ccccc1)ON1C(=O)c2ccccc2C1=O (centres undefined)
48 to 49	CC1=C(CC#N)CCc2ccccc21
122 to 124	O=[N+]([O-])c1cccnc1Sc1ncccn1
66 to 68	NC(=O)C[C@H](NC(=O)c1ccc(OCc2ccccc2)cc1OCc1ccccc1)C(=O)N1CCN(Cc2ccccc2)CC1
118 to 120	C[Si](C)(C)O[C@@H]1C(=O)N[C@@H]1c1ccccc1 (relative stereo)
92.5 to 95	COc1ccc(F)cc1OCC=O
189 to 190	CCCCN(c1cccc(-c2ccnc3c([N+](=O)[O-])cnn23)c1)S(=O)(=O)c1ccc(OC)cc1
35.5 to 36.9	CC=COCCC[C@H]1CC[C@H](c2cccc(F)c2F)CC1
42 to 44	CCCCCCCCCCCCCCCC(=O)Oc1c(F)c(F)c(F)c(F)c1F
98 to 99	C#CCOC(=O)c1cc(Cl)c(OCC#C)c(OCC#C)c1
109 to 110	CCOC(=O)/C=C/c1ccc(OCc2nc(-c3ccccc3)oc2C)nc1
136 to 139	CC(C)=CCOc1ccc(C(=O)C=Cc2ccc(C(C)(C)C)cc2)c(OCC(=O)O)c1
194 to 196	CS(=O)(=O)Nn1c(=O)[nH]c2cc(C(F)(F)F)c(Oc3cccnc3)cc2c1=O
269 to 270	CCOC(=O)c1cn(CCF)c2nc(N3CCC(NC(C)=O)C3)c(F)cc2c1=O (centres undefined)

Compound	melting point [°C]
NC(Cc1ccc(O)c(O)c1)P(O)O (centres undefined)	237 to 238
O=C(NC1C(=O)N(CC2C3CC4CC(C3)CC2C4)c2ccccc2N(c2ccccc2)C1=O)Oc1ccccc1 (centres undefined)	167 to 168

Reference: a melting point compilation (Tetko et al.; mined from patent text by program, amines drawn as free bases though some values may be those of a salt)
